Measured values published in ChEMBL document CHEMBL3045243, “Synthesis of novel 3-chloro-1-(5H-dibenz[b,f]azepine-5yl)propan-1-one derivatives with antioxidant activity” (Med Chem Res, 2011).

Assays:
Type in all cases: functional
[1] = Antioxidant activity assessed as inhibition of CuSO4-induced human LDL oxidation at 10 uM at 2 hr by thibarbuteric acid assay
[2] = Antioxidant activity assessed as inhibition of linoleic acid oxidation at 10 uM up to 180 min by beta-carotene bleaching assay
[3] = Antioxidant activity assessed as inhibition of CuSO4-induced human LDL oxidation at 10 uM at 6 hr by thibarbuteric acid assay
[4] = Antioxidant activity assessed as inhibition of CuSO4-induced human LDL oxidation at 25 uM at 4 hr by thibarbuteric acid assay
[5] = Antioxidant activity assessed as inhibition of CuSO4-induced human LDL oxidation at 25 uM at 2 hr by thibarbuteric acid assay
[6] = Antioxidant activity assessed as inhibition of CuSO4-induced human LDL oxidation at 25 uM at 6 hr by thibarbuteric acid assay
[7] = Antioxidant activity assessed as inhibition of CuSO4-induced human LDL oxidation at 10 uM at 4 hr by thibarbuteric acid assay
[8] = Antioxidant activity assessed as inhibition of linoleic acid oxidation at 25 uM up to 180 min by beta-carotene bleaching assay

Structure (SMILES)	inhibition [1]	inhibition [2]	inhibition [3]	inhibition [4]	inhibition [5]	inhibition [6]	inhibition [7]	inhibition [8]
O=C(O)[C@H](CS)NCCC(=O)N1c2ccccc2C=Cc2ccccc21	67.3%	82.2%	72.5%	73.4%	70.5%	75.8%	69.8%	84.4%
O=C(O)[C@@H]1CCCN1CCC(=O)N1c2ccccc2C=Cc2ccccc21	11.9%	4.22%	15.4%	14.1%	13.7%	17.4%	13.6%	6.15%
C[C@H](NCCC(=O)N1c2ccccc2C=Cc2ccccc21)C(=O)O	8.92%	10%	11%	10.1%	9.14%	12.1%	9.75%	15.4%
O=C(O)[C@H](Cc1c[nH]c2ccccc12)NCCC(=O)N1c2ccccc2C=Cc2ccccc21	67.9%	83.6%	73.5%	73.2%	71.2%	75.2%	70.8%	85.9%
CSCC[C@H](NCCC(=O)N1c2ccccc2C=Cc2ccccc21)C(=O)O	54.6%	52.6%	59.7%	59.8%	55%	61.6%	57.9%	67.3%
O=C(O)[C@H](Cc1ccccc1)NCCC(=O)N1c2ccccc2C=Cc2ccccc21	9.98%	5.39%	13.5%	16.4%	13.1%	18.7%	11.2%	8.3%
O=C(O)[C@@H]1C(O)CCN1CCC(=O)N1c2ccccc2C=Cc2ccccc21 (some centres undefined)	69.7%	85.4%	75.8%	75.5%	73.7%	77.1%	73.5%	88.4%
O=C(O)[C@H](Cc1ccc(O)cc1)NCCC(=O)N1c2ccccc2C=Cc2ccccc21	70.5%	86.8%	78.7%	79.6%	73.6%	83.5%	75.5%	89.1%
C[C@@H](O)[C@H](NCCC(=O)N1c2ccccc2C=Cc2ccccc21)C(=O)O	53.5%	53.8%	57%	59.6%	56.2%	61.6%	55.5%	76%
O=C(O)[C@H](Cc1c[nH]cn1)NCCC(=O)N1c2ccccc2C=Cc2ccccc21	56.3%	85%	68.5%	70.1%	68.3%	72.7%	65.7%	86.8%
O=C1O[C@H]([C@@H](O)CO)C(O)=C1O	74.3%	87.2%	84.4%	85.2%	79.2%	92.2%	81.3%	90.4%
O=C(CCCl)N1c2ccccc2C=Cc2ccccc21	5.34%	2.89%	8.87%	9.77%	7.43%	12.4%	6.87%	4.24%
O=C(O)CNCCC(=O)N1c2ccccc2C=Cc2ccccc21	6.71%	2.96%	10.2%	7.92%	8.24%	10.3%	7.95%	8.8%
